Structures are written as SMILES. Some results are limits rather than exact numbers.

The subject of data set [1] is Human immunodeficiency virus 1. As to the kind of experiment: Antiviral activity against HIV-1 infected in human PBMC. In kind it is functional, organism-based. Particulars: Human immunodeficiency virus 1, PBMC.
Data set [2] deals with Human immunodeficiency virus type 1 Gag protein (Human immunodeficiency virus 1, UniProt Q77YG1). As to the kind of experiment: Binding affinity to HIV1 Gag assessed as dissociation constant.
The nature of data set [3]: Metabolic stability in rhesus monkey hepatocytes assessed as half-life. In kind it is ADME, cell-based, Macaca mulatta, Hepatocyte.
Data set [4] deals with Human immunodeficiency virus. Nature of the data set: Antiviral activity against HIV IIIB infected in human MT4 cells. In kind it is functional, organism-based. Particulars: Human immunodeficiency virus 1, IIIB.
Data set [5] addresses T1, DNA polymerase subunit gamma-1 (Homo sapiens) (UniProt P54098).
T1 sequence (whole entry): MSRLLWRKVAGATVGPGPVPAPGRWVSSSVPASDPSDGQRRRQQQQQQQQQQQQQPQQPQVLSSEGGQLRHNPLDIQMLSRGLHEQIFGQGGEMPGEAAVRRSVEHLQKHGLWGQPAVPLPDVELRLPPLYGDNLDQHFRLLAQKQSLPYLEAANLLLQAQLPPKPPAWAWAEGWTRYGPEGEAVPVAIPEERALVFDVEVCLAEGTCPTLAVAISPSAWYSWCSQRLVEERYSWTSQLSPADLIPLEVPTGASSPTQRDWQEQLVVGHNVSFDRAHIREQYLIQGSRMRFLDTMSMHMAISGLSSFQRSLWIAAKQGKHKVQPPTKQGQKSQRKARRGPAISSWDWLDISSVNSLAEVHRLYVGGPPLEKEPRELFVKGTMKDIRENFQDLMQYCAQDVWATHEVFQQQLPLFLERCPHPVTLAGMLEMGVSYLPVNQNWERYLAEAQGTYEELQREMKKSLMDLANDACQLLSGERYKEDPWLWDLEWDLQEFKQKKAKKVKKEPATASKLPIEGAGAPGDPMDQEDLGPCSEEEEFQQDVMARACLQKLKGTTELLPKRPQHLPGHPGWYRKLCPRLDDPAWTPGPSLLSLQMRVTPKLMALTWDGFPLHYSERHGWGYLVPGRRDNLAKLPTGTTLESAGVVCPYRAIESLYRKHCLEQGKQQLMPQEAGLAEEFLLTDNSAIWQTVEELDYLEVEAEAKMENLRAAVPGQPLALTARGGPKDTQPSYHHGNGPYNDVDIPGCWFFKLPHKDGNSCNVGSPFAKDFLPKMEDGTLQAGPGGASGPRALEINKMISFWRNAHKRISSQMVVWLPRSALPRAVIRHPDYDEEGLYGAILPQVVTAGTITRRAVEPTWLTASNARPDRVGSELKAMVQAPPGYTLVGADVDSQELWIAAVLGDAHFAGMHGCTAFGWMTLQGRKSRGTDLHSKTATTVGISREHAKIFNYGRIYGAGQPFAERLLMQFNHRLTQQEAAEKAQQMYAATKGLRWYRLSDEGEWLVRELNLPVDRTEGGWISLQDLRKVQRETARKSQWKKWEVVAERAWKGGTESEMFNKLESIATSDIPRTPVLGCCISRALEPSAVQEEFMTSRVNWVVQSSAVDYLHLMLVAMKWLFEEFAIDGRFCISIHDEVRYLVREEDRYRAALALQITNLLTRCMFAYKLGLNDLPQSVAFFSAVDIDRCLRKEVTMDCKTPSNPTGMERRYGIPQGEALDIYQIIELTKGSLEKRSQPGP
Nature of the data set: Ratio of K for biding affinity to human DNA polymerase gamma assessed as polymerization rate to Kd for binding affinity to human DNA polymerase gamma.

Data set [6] has as its target T1, DNA polymerase subunit gamma-1 (Homo sapiens). As to the kind of experiment: Binding affinity to human DNA polymerase gamma assessed as polymerization rate.
In data set [7] the target is T2, DNA polymerase subunit gamma-1 (Homo sapiens, UniProt P54098).
T2 sequence (P54098 whole entry): T1 sequence (whole entry)
As to the kind of experiment: Binding affinity to human DNA polymerase gamma assessed as dissociation constant.

Data set [8] concerns Human immunodeficiency virus. Nature of the data set: Antiviral activity agaisnt HIV BAL infected in human PM1 cells assessed as inhibition of viral replication. In kind it is functional, organism-based. Particulars: Human immunodeficiency virus 1, BAL.
Data set [9] deals with Human immunodeficiency virus 1. Nature of the data set: Antiviral activity against HIV-1 NL4-3 infected in human MT4 cells assessed as reduction in virus induced cytopathic effect by XTT assay. In kind it is functional, organism-based. Particulars: Human immunodeficiency virus 1, NL4-3, MT4. For orientation: Cytopathic effects are the visible damage that an infection or toxin causes in cultured cells.

The target in data set [10] is C-C chemokine receptor type 5 (Homo sapiens, UniProt P51681). Nature of the data set: Displacement of [125I]MIP-1alpha from CCR5 receptor (unknown origin) expressed in HEK293 cells. In kind it is cell-based. In general terms: Displacement assays read how much labelled ligand stays bound in the presence of the test substance.
The target of a further data set is hERG (Homo sapiens, UniProt Q12809). Nature of the data set: Inhibition of tritium labelled dofetilide binding to hERG expressed in HEK293 cells at 300 nM relative to control. In kind it is toxicity, cell-based. Particulars: HEK293 cells that express hERG, probe tritium labelled dofetilide. (In general: The hERG channel carries a current that helps repolarise heart muscle cells.)

A short description of data set [11]: Inhibition of HIV integrase. Details: species or system Human immunodeficiency virus.
The subject of data set [12] is Human immunodeficiency virus. As to the kind of experiment: Antiviral activity against HIV. In kind it is functional, organism-based. Particulars: Human immunodeficiency virus 1.
Data set [13] deals with Human immunodeficiency virus type 1 protease (Human immunodeficiency virus 1, UniProt Q72874). As to the kind of experiment: Inhibition of HIV-1 protease.
For data set [14], the system named is Human immunodeficiency virus 1. Nature of the data set: Antiviral activity against HIV-1 IIIB infected in human H9 cells. In kind it is functional, organism-based. Particulars: Human immunodeficiency virus 1, IIIB.
Data set [15] concerns Human immunodeficiency virus 1. Nature of the data set: Antiviral activity against HIV-1 infected in PBMC (unknown origin) assessed as inhibition of viral replication by ELISA. In kind it is functional, organism-based. Particulars: Human immunodeficiency virus 1, PBMC.
Data set [16] can be described thus: Inhibition of wildtype HIV Reverse transcriptase. On the set-up: species or system Human immunodeficiency virus.
Data set [17] can be described thus: Cytotoxicity against human CEM cells. In kind it is toxicity, cell-based. Particulars: CEM cells (CCRF-CEM).
The subject of data set [18] is Human immunodeficiency virus 1. Nature of the data set: Antiviral activity against HIV-1 LAV infected in human CEM cells. In kind it is functional, organism-based. Particulars: Human immunodeficiency virus 1, LAV, CCRF-CEM.

C-C chemokine receptor type 5, sequence (P51681 whole entry): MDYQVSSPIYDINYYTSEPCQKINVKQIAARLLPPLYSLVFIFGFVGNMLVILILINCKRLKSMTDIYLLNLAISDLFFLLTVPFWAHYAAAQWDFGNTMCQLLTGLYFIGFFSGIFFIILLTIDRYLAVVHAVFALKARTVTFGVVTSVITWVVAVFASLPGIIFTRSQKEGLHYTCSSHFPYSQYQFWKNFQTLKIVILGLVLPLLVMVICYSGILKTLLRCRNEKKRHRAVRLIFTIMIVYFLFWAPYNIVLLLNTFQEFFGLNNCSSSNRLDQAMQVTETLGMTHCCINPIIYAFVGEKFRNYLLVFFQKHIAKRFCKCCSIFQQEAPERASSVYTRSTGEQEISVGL
hERG, sequence (Q12809 whole entry): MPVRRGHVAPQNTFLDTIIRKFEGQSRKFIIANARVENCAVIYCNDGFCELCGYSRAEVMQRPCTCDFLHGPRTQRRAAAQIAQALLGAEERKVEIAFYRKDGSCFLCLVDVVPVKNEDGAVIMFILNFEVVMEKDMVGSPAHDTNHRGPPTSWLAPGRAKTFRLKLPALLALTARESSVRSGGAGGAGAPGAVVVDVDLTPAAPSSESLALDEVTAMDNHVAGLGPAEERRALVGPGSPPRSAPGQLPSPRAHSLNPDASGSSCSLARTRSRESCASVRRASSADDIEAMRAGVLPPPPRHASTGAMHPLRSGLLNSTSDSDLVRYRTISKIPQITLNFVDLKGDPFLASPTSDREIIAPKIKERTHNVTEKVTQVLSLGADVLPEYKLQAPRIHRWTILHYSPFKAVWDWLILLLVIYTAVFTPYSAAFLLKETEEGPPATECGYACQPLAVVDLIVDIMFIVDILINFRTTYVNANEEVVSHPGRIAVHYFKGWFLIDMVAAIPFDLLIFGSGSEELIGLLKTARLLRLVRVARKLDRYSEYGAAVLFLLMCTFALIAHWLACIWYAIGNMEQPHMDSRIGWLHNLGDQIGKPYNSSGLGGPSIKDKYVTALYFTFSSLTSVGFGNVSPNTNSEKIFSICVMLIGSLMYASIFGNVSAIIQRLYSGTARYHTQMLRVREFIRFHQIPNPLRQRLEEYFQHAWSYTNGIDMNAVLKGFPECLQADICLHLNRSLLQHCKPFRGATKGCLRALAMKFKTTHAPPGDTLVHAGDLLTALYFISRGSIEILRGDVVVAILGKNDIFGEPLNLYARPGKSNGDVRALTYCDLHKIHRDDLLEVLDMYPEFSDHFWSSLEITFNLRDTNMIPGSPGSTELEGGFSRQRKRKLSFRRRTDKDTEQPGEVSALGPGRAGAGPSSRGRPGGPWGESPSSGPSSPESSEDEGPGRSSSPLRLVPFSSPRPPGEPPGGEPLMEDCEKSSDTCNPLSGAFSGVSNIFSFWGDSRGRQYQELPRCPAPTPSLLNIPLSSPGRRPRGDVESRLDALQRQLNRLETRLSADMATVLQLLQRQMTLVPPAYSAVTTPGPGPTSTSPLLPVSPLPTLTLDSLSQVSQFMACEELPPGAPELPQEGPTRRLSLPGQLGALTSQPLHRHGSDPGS

The term IC50 denotes the concentration needed to halve the response being measured. The Kd is the free concentration of one partner at which half of the binding sites on the other are occupied at equilibrium, for simple one-to-one binding. The half-life is the time in which the quantity being followed falls by half. For the molecule `CC(C)(C#Cc1ccc(-c2ccc(Cl)c3c(NS(=O)(=O)C4CC4)nn(CC(F)F)c23)c([C@H](Cc2cc(F)cc(F)c2)NC(=O)Cn2nc(C(F)(F)F)c3c2C(F)(F)[C@@H]2C[C@H]32)n1)S(C)(=O)=O`, in [1], the IC50 was determined as 0.13 nM. Also, in [2], the Kd is 2.4 nM. In data set [3], the half-life was 130 h. As to `O=C1Nc2ccc(Cl)cc2[C@@](C#Cc2ccccn2)(C2CC2)N1`, in [4], the IC50 is 12 nM. In the case of `Nc1ccn([C@H]2C[C@H](O)[C@@H](COP(=O)(O)OP(=O)(O)OP(=O)(O)O)O2)c(=O)n1` [DEOXYCYTIDINE TRIPHOSPHATE], in data set [5], the Ratio was determined as 40 µM⁻¹ s⁻¹. Also, the K in data set [6] is 44 s⁻¹. Besides, the Kd in data set [7] worked out at 1100 nM. As usually defined, the IC90 is the concentration needed for an effect of 90%. Take `Cc1nnc(C(C)C)n1C1CC2CCC(C1)N2CC[C@H](NC(=O)C1CCC1)c1ccccc1` (stereo partly drawn): the IC90 in data set [8] is 8 nM. In the case of `CN(C(=O)[C@@H](CCc1ccccc1)NC(=O)Cc1c[nH]c2ccccc12)c1ccccn1`, the IC50 in [9] stood at 4500 nM. Consider `Cc1nc2ccccc2n1C1CCN(CCC(NC(=O)c2ccccc2)c2ccccc2)CC1` (stereo not drawn), for which the IC50 in [10] turned out to be 45 nM; in [8], 210 nM.

`Nc1nc(=O)n([C@@H]2CS[C@H](COP(=O)(O)OP(=O)(O)OP(=O)(O)O)O2)cc1F` [EMTRICITABINE 5'-TRIPHOSPHATE]: the Ratio in [5] is < 1.4 10^-4/µM/s. Moreover, the K in [6] was < 8.6 10^-3/s. Moreover, the Kd in data set [7] is 63000 nM. What is called inhibition is how much of the control response was suppressed. With `Cc1nc2ccccc2n1C1C[C@H]2CC[C@@H](C1)N2CC[C@H](NC(=O)C1CCC1)c1ccccc1` (stereo partly drawn), the inhibition at 0.3 µM on hERG was found to be 80%. In data set [8], the IC90 is 3 nM. In the case of `O=C(/C=C(\O)c1nc[nH]n1)c1ccc(Cc2ccc(F)cc2)o1` [S-1360], in data set [11], the IC50 was 20 nM. The molecule `CCC(c1ccccc1)c1c(O)c2ccccc2oc1=O` (stereo not drawn) [PHENPROCOUMON] yielded an IC50 in data set [12] of 100000 nM. The Ki is a measure of affinity in units of concentration, obtained from inhibition or displacement. `CCC[C@]1(CCc2ccccc2)CC(O)=C([C@@H](CC)c2cccc(NS(=O)(=O)c3ccc(C#N)cn3)c2)C(=O)O1`: the Ki in [13] is 0.12 nM. In addition, in [14], the IC50 was more than 1000 nM and the IC90 was more than 1000 nM.

Regarding `Cc1cn([C@H]2C[C@H](N=[N+]=[N-])[C@@H](CO)O2)c(=O)[nH]c1=O` [ZIDOVUDINE], the IC50 in [15] is 55 nM. In [10], `Cc1nc2ccccc2n1C1CCN(CC[C@H](NC(=O)c2ccccc2)c2ccccc2)CC1` returned a half-inhibitory concentration (IC50) of 13 nM. For the molecule `O=c1[nH]cnc2c1ncn2[C@H]1CC[C@@H](CO)O1` [DIDANOSINE], the IC50 in data set [15] was found to be 760 nM. In data set [16], `Cc1cc(C)c(-n2nnnc2SCC(=O)Nc2ccc(S(N)(=O)=O)cc2Cl)c(C)c1` gave an IC50 of 4.1 nM. For the molecule `Cc1nnc(C(C)C)n1C1CC2CCC(C1)N2CC[C@H](NC(=O)C1CCCC1)c1ccccc1` (stereo partly drawn), in data set [8], the IC90 worked out at 1.6 nM. Consider `Nc1ccn([C@H]2CC[C@@H](CO)O2)c(=O)n1` [ZALCITABINE], for which the IC50 in data set [15] amounted to 11 nM. In the case of `NS(=O)(=O)c1ccc(NC(=O)COc2cccc(Oc3ccccc3)c2)c(Cl)c1`, the concentration for half-maximal inhibition (IC50) in data set [16] stood at 52 nM. What is called CC50 is the concentration giving 50% cytotoxicity. `Nc1ccn([C@@H]2CS[C@H](CO)O2)c(=O)n1` [LAMIVUDINE] displayed a CC50 in data set [17] of more than 100000 nM. The half-maximal inhibitory concentration (IC50) in data set [18] was 70 nM. With `CCC[C@@]1(CCc2ccccc2)CC(O)=C([C@@H](CC)c2cccc(NS(=O)(=O)c3ccc(C#N)cn3)c2)C(=O)O1`, in [13], the Ki was 0.1 nM. In [14], the IC50 was found to be 490 nM and the 90% effect level (IC90) was put at 1000 nM.
